Here are results for one molecule from patent US20250213566A1, “PHARMACEUTICAL COMPOSITION FOR PREVENTING OR TREATING SKIN DISEASES CAUSED BY RADIATION IRRADIATION COMPRISING DARAPLADIB OR PHARMACEUTICALLY ACCEPTABLE SALT THEREOF AS ACTIVE INGREDIENT” (KOREA INSTITUTE OF RADIOLOGICAL & MEDICAL SCIENCES, priority 2022, published 2025).

One assay concerns human fibroblasts. Kind of assay: TGF-β-induced differentiation from fibroblasts to myofibroblasts, immunofluorescence staining of collagen. To be noted: TGF-β treated fibroblasts; darapladib 0.25 nM and 0.5 nM applied 1 hour before TGF-β; vs TGF-β treated group; FIG. 1. The format is cell-based. How it is done:
To identify the effect of darapladib on suppression of differentiation from fibroblasts to myofibroblasts, used was a transforming growth factor-beta (TGF-β), a growth factor that induces differentiation from human fibroblasts to myofibroblasts. Darapladib was applied to the medium at low concentration (0.25 nM) and high concentration (0.5 nM) respectively 1 hour before TGF-β treatment and then fixed with 4% formaldehyde in a live state in a single-layer culture of fibroblasts, and immunofluorescence staining of collagen was performed, followed by visualization by confocal microscopy.

The subject of assay [1] is SKH-1 hairless mice. Put plainly: Radiation-induced skin damage in SKH-1 hairless mice, appearance of skin. Format: in vivo. To be noted: day 20 after irradiation, FIG. 3. The protocol: (§1) In order to identify the effect of darapladib in improving radiation-induced skin damage, SKH-1 hairless mice, which has the most similar characteristics to the human skin layer, immune system, and vascular system, was used, and for the irradiated group, local irradiation was performed on the skin in a total of 40 Gy by irradiating two times by 20 Gy at intervals of 5 days. Darapladib was used to suppress radiation-induced skin damage, and subcutaneous injections were given at different concentrations (20 mg/kg and 40 mg/kg).

In assay [2] the test system is SKH-1 hairless mice. Put plainly: Skin moisture content (Corneometer), moisture loss (Tewameter) and skin pH after irradiation. Format: in vivo. To be noted: 40 Gy local irradiation; day 20 after irradiation; skin pH meter; FIG. 4. The protocol:
as §1, with “mg/kg). In addition, in order to quantitatively observe the effect of darapladib in inhibiting radiation-induced skin damage, the moisture content, moisture loss, and pH level of the skin were measured on day 20 after irradiation. The moisture content in the skin was measured using Corneometer (Corneometer CM825, CK electronic GmbH, Germany), the moisture loss by Tewameter (TM300, CK electronic GmbH, Germany), and the pH level of the skin by a skin pH meter (pH905, CK electronic GmbH, Germany).” for “mg/kg).”

In assay [3] the test system is SKH-1 hairless mice. Put plainly: Histological changes in irradiated skin, hematoxylin and eosin staining, Image J quantification of adipocytes. Format: in vivo. The protocol:
In order to identify the effect of darapladib in improving radiation-induced skin damage, SKH-1 hairless mice, which has the most similar characteristics to the human skin layer, immune system, and vascular system, was used, and for the irradiated group, local irradiation was performed on the skin in a total of 40 Gy by irradiating two times by 20 Gy at intervals of 5 days. Darapladib was used to suppress radiation-induced skin damage, and subcutaneous injections were given at different concentrations (20 mg/kg and 40 mg/kg). In addition, in order to observe the histological changes in the skin, the extracted tissues were embedded by undergoing a paraffin infiltration process, a 4 μm thinned section was prepared to undergo deparaffinization and hydration followed by staining with hematoxylin and eosin, and then tissue damage, blood vessel damage, and changes in the epidermis, dermis, and adipocyte layer of skin tissue were observed using an optical microscope. In addition, to quantify the degree of skin damage, the area and number of granules in which adipocytes are present were calculated and statistically analyzed using the Image J program.

Another assay concerns collagen. Kind of assay: Masson's trichrome staining of irradiated skin (collagen deposition). The format is in vivo, mice. To be noted: day 20 after irradiation, IR/Dara group, FIG. 6. How it is done: as §1
Another assay deals with α-SMA. Kind of assay: α-SMA expression in irradiated skin by IHC staining, immunofluorescence and Western blot. To be noted: FIG. 7. The format is in vivo, mice. The protocol:
as §1
For orientation: A western blot detects proteins with antibodies after separation by electrophoresis.

Another assay has as its system vimentin. Kind of assay: Vimentin expression in irradiated skin by immunohistochemistry. The format is in vivo, mice. To be noted: FIG. 8. The protocol: as §1, with “mg/kg). In addition, to identify the effect of darapladib on vimentin, which is another marker of fibrosis and applicable to immune diseases, immunohistochemistry (IHC) method was applied to stain the surface of the skin.” for “mg/kg).”

Where [4] appears, read: irradiated skin sections, H&E, Dara+IR group, FIG. 5A.

The structures appear in SMILES notation.

With `CCN(CC)CCN(Cc1ccc(-c2ccc(C(F)(F)F)cc2)cc1)C(=O)Cn1c(SCc2ccc(F)cc2)nc(=O)c2c1CCC2` [darapladib], in the assay with human fibroblasts, the expression of collagen entry is reported as “decreased significantly”. Besides, the “fibrosis (chronic thickening of skin surface, red wounds, inflammation)” value in the assay with SKH-1 hairless mice [1] (40 Gy local irradiation (2 x 20 Gy), subcutaneous 20 mg/kg and 40 mg/kg, vs irradiated group) is “remarkably reduced”. Further, the “recovery of irradiated skin” value with SKH-1 hairless mice [1] (40 Gy local irradiation, subcutaneous 40 mg/kg (high concentration)) is “recovery similar to that of the control group without irradiation”. In the assay with SKH-1 hairless mice [2], the “skin pH” value is “remained slightly acidic”. In the assay on SKH-1 hairless mice [3] (setting [4]), the adipocyte granules result is “retained”. For the same molecule, the “thickness of the epidermis and dermis of the skin” value with SKH-1 hairless mice [3] (setting [4]) was “restored similar to the control group”. The area of adipocytes entry in the assay on SKH-1 hairless mice [3] (irradiated skin, Image J, FIGS. 5B and 5C) was “significantly recovered”. Moreover, the “collagen fiber or thickness of the skin layer” value with collagen is recorded as “restored to a level of the control group”. The “expression of α-SMA” value is “reduced expression of α-SMA compared to the irradiated group” in the assay with α-SMA (IR/Dara group vs irradiated group) and “expression level similar to that of the control group” in the assay with α-SMA (high concentration, 40 mg/kg). In addition, the vimentin expression entry was “decreased” in the assay with vimentin (IR/Dara group) and “similarly to the control group” in the assay with vimentin (high concentration, 40 mg/kg).
